Experimental data as given in ChEMBL document CHEMBL1136649, “Synthesis and antibacterial study of 10, 15, 20-triphenyl-5-(4-hydroxy-3-(trimethylammonium)methyl)phenylporphyrin as models for combination of porphyrin and alkylating agent” (2003).
In brackets after ≈: the same amount, converted by molar mass.

These compounds were tested on Staphylococcus aureus (assay: Minimum inhibitory concentration required against Staphylococcus aureus ATCC 25923).
Format: functional

| MIC [µM] | Compound |
| --- | --- |
| 60 | C[N+](C)(C)Cc1cc(-c2c3nc(c(-c4ccccc4)c4ccc([nH]4)c(-c4ccccc4)c4nc(c(-c5ccccc5)c5ccc2[nH]5)C=C4)C=C3)ccc1O |
| 240 | COc1ccc(-c2c3nc(c(-c4ccccc4)c4ccc([nH]4)c(-c4ccccc4)c4nc(c(-c5ccccc5)c5ccc2[nH]5)C=C4)C=C3)cc1C[N+](C)(C)C |
| 120 (≈ 82.5 µg/mL) | CN(C)Cc1cc(-c2c3nc(c(-c4ccccc4)c4ccc([nH]4)c(-c4ccccc4)c4nc(c(-c5ccccc5)c5ccc2[nH]5)C=C4)C=C3)ccc1O |
